{"source": "patent US20250346585A1", "about": "(Alexion Pharmaceuticals, Inc., priority 2022, published 2025)"}
{"molecular_target": "Human complement C1s enzyme (Homo sapiens (Human), UniProt P09871)", "sequence (P09871 438-688 limits assumed)": "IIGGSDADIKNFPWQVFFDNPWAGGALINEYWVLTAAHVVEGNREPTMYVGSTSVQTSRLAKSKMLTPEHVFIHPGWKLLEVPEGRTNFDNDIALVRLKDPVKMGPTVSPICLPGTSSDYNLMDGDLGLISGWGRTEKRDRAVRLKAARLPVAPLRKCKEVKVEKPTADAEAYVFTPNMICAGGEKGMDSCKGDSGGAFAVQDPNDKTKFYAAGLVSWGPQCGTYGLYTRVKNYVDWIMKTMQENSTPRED", "sequence (P09871 16-437 partner limits assumed)": "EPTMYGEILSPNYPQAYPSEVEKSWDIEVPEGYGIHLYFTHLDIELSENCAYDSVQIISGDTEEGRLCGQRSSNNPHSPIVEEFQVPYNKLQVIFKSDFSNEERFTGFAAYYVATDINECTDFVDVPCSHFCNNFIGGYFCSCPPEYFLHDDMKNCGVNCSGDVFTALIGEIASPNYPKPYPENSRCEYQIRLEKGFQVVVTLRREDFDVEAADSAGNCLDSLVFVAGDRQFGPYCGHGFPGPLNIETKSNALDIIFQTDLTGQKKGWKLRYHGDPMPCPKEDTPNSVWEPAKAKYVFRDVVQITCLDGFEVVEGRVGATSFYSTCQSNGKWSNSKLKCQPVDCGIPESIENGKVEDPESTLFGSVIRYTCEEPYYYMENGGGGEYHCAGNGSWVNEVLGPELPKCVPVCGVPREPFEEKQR", "experiment": "Human C1s enzyme assay", "assay_type": "biochemical", "settings": "Human C1s enzyme assay of Example 3; read-out: IC50 (Stars)", "in_short": "(§1)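 Purified serum-derived human C1s (1.16 nM final) preincubated 5 min at room temperature with compound in 50 mM Tris, 1 M NaCl, pH 7.5. Z-L-Lys-SBzl thioester substrate and DTNB added (100 μM each, final); A405 read every 30 s for 30 min. IC50 from nonlinear regression of reaction rates against compound concentration.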", "units": {"IC50": "nM"}}
{"smiles": "Cc1cccc2c1C(F)(F)c1ccc(C(=O)NCC(=O)N3CC4(C[C@H]3C(=O)N[C@H](C)c3cc(C(=N)N)cs3)OCCO4)cc1-2", "note": "[Compound 182, (S)—N—((R)-1-(4-carbamimidoylthiophen-2-yl)ethyl)-7-((9,9-difluoro-8-methyl-9H-fluorene-3-carbonyl)glycyl)-1,4-dioxa-7-azaspiro[4.4]nonane-8-carboxamide]", "IC50": "< 100"}
{"smiles": "C[C@@H](NC(=O)[C@@H]1C[C@@H](OC(F)F)CN1C(=O)CNC(=O)c1ccc(Oc2ccc(C(F)F)cc2)cc1)c1cc(C(=N)N)cs1", "note": "[Compound 65, (2S,4R)—N—((R)-1-(4-carbamimidoylthiophen-2-yl)ethyl)-4-(difluoromethoxy)-1-((4-(4-(difluoromethyl)phenoxy)benzoyl)glycyl)pyrrolidine-2-carboxamide]", "IC50": "< 100"}
{"smiles": "C[C@@H](NC(=O)[C@@H]1C[C@@H](S(C)(=O)=O)CN1C(=O)CNC(=O)c1ccc2c(c1)-c1ccccc1C2(F)F)c1cc(C(=N)N)cs1", "note": "[Compound 61, (2S,4R)—N—((R)-1-(4-carbamimidoylthiophen-2-yl)ethyl)-1-((9,9-difluoro-9H-fluorene-3-carbonyl)glycyl)-4-(methylsulfonyl)pyrrolidine-2-carboxamide]", "IC50": "< 100"}
{"smiles": "CCc1ccc(Oc2ccc(C(=O)NCC(=O)N3C[C@H](OC(F)F)C[C@H]3C(=O)N[C@H](C)c3cc(C(=N)N)cs3)cc2)cc1", "note": "[Compound 39, (2S,4R)—N—((R)-1-(4-carbamimidoylthiophen-2-yl)ethyl)-4-(difluoromethoxy)-1-((4-(4-ethylphenoxy)benzoyl)glycyl)pyrrolidine-2-carboxamide]", "IC50": "< 100"}
{"smiles": "Nc1nc(-c2csc(CNC(=O)[C@@H]3CC4(CN3C(=O)CNC(=O)c3ccc(Oc5ccc(F)cc5)cc3)OCCO4)c2)cs1", "note": "[Compound 186, (S)—N-((4-(2-aminothiazol-4-yl)thiophen-2-yl)methyl)-7-((4-(4-fluorophenoxy)benzoyl)glycyl)-1,4-dioxa-7-azaspiro[4.4]nonane-8-carboxamide]", "IC50": "> 1000"}
{"smiles": "NS(=O)(=O)c1cncc(-c2csc(CNC(=O)[C@@H]3CC4(CN3C(=O)CNC(=O)c3ccc(Oc5ccc(F)cc5)cc3)OCCO4)c2)c1", "note": "[Compound 143, (S)-7-((4-(4-fluorophenoxy)benzoyl)glycyl)-N-((4-(5-sulfamoylpyridin-3-yl)thiophen-2-yl)methyl)-1,4-dioxa-7-azaspiro[4.4]nonane-8-carboxamide]", "IC50": "> 1000"}
{"smiles": "C[C@@H](NC(=O)[C@@H]1C[C@](F)(CF)CN1C(=O)CNC(=O)c1ccc2c(c1)-c1ccccc1C2(F)F)c1cc(C(=N)N)cs1", "note": "[Compound 11, (2S,4R)—N-[(1R)-1-(4-carbamimidoylthiophen-2-yl)ethyl]-1-{2-[(9,9-difluorofluoren-3-yl)formamido]acetyl}-4-fluoro-4-(fluoromethyl) pyrrolidine-2-carboxamide]", "IC50": "< 100"}
{"smiles": "C[C@@H](NC(=O)[C@@H]1CC2(CN1C(=O)CNC(=O)c1ccc3c(c1)-c1ccccc1C3(F)F)OCCO2)c1ccc(C(=N)N)s1", "note": "[Compound 56]", "IC50": "< 100"}
{"smiles": "Cc1cc(C(=O)NCC(=O)N2[C@H]3C[C@@]3(C)C[C@H]2C(=O)N[C@H](C)c2cc(C(=N)N)cs2)ccc1Oc1ccccc1", "note": "[Compound 28, (1S,3S,5S)—N—((R)-1-(4-carbamimidoylthiophen-2-yl)ethyl)-5-methyl-2-((3-methyl-4-phenoxybenzoyl)glycyl)-2-azabicyclo[3.1.0]hexane-3-carboxamide]", "IC50": "< 100"}
{"smiles": "N=C(N)c1csc(CNC(=O)[C@@H]2CC3(CN2C(=O)CNC(=O)c2ccc(-c4ccc(C(F)(F)F)cc4)cc2)OCCO3)c1", "note": "[Compound 116, (S)—N-((4-carbamimidoylthiophen-2-yl)methyl)-7-((4′-(trifluoromethyl)-[1,1′-biphenyl]-4-carbonyl)glycyl)-1,4-dioxa-7-azaspiro[4.4]nonane-8-carboxamide]", "IC50": "< 100"}
{"smiles": "Nc1cnc(-c2csc(CNC(=O)[C@@H]3CC4(CN3C(=O)CNC(=O)c3ccc(Oc5ccc(F)cc5)cc3)OCCO4)c2)s1", "note": "[Compound 185, (S)—N-((4-(5-aminothiazol-2-yl)thiophen-2-yl)methyl)-7-((4-(4-fluorophenoxy)benzoyl)glycyl)-1,4-dioxa-7-azaspiro[4.4]nonane-8-carboxamide]", "IC50": "< 100"}
{"smiles": "C[C@@H](NC(=O)[C@@H]1C[C@@H](c2ccccc2)CN1C(=O)CNC(=O)c1ccc2c(c1)-c1ccccc1C2(F)F)c1cc(C(=N)N)cs1", "note": "[Compound 81, (2S,4S)—N—((R)-1-(4-carbamimidoylthiophen-2-yl)ethyl)-1-((9,9-difluoro-9H-fluorene-3-carbonyl)glycyl)-4-phenylpyrrolidine-2-carboxamide]", "IC50": "< 100"}
{"smiles": "C[C@@H](NC(=O)[C@@H]1C[C@]2(C)C[C@@H]2N1C(=O)CNC(=O)c1ccc2c(c1)C(F)(F)c1ccccc1-2)c1cc(C(=N)N)cs1", "note": "[Compound 121, (1S,3S,5S)—N-[(1R)-1-(4-carbamimidoylthiophen-2-yl)ethyl]-2-{2-[(9,9-difluorofluoren-2-yl)formamido]acetyl}-5-methyl-2-azabicyclo[3.1.0]hexane-3-carboxamide]", "IC50": "< 100"}
{"molecular_target": "Human complement C1s enzyme (Homo sapiens (Human), UniProt P09871)", "experiment": "Human C1s enzyme assay", "assay_type": "biochemical", "settings": "Human complement C1s enzyme 1.16 nM, substrate Z-L-Lys-SBzl 100 μM, assay of Example 3; read-out: IC50 (Stars)", "in_short": "as §1", "units": {"IC50": "nM"}}
{"smiles": "COc1ccc(-c2ccc(C(=O)NCC(=O)N3CC4(C[C@H]3C(=O)NCc3cc(C(=N)N)cs3)OCCO4)cc2)cc1", "note": "[Compound 217, (S)—N-((4-carbamimidoylthiophen-2-yl)methyl)-7-((4′-methoxy-[1,1′-biphenyl]-4-carbonyl)glycyl)-1,4-dioxa-7-azaspiro[4.4]nonane-8-carboxamide]", "IC50": "< 100"}
{"smiles": "N=C(N)c1csc(C(CN)NC(=O)[C@@H]2C[C@@H](OC(F)F)CN2C(=O)CNC(=O)c2ccc(Oc3ccccc3)cc2)c1", "note": "(stereo partly shown) [Compound 314]", "IC50": "> 1000"}
{"smiles": "C[C@@H](NC(=O)[C@@H]1C[C@@H](S(C)(=O)=O)CN1C(=O)CNC(=O)c1ccc2c(c1)-c1ccccc1S2(=O)=O)c1cc(C(=N)N)cs1", "note": "[Compound 342, (2S,4R)—N—((R)-1-(4-carbamimidoylthiophen-2-yl)ethyl)-1-((5,5-dioxidodibenzo[b,d]thiophene-2-carbonyl)glycyl)-4-(methylsulfonyl) pyrrolidine-2-carboxamide]", "IC50": "< 100"}
{"smiles": "CC(=O)NCCNC[C@@]1(F)C[C@@H](C(=O)N[C@H](C)c2cc(C(=N)N)cs2)N(C(=O)CNC(=O)c2ccc3c(c2)-c2ccccc2C3(F)F)C1", "note": "[Compound 269, (2S,4S)-4-(((2-acetamidoethyl)amino)methyl)-N—((R)-1-(4-carbamimidoylthiophen-2-yl)ethyl)-1-((9,9-difluoro-9H-fluorene-3-carbonyl)glycyl)-4-fluoropyrrolidine-2-carboxamide]", "IC50": "< 100"}
{"smiles": "C[C@@H](NC(=O)[C@@H]1C[C@@H](S(C)(=O)=O)CN1C(=O)CNC(=O)c1ccc2c(c1)-c1ccccc1C2OC(F)F)c1cc(C(=N)N)cs1", "note": "(stereo partly drawn) [Compound 392, (2S,4R)—N—((R)-1-(4-carbamimidoylthiophen-2-yl)ethyl)-1-((9-(difluoromethoxy)-9H-fluorene-3-carbonyl)glycyl)-4-(methylsulfonyl)pyrrolidine-2-carboxamide]", "IC50": "< 100"}
{"smiles": "C[C@@H](NC(=O)[C@@H]1CC2(CN1C(=O)CNC(=O)c1ccc3c(c1)[nH]c1ccccc13)OCCO2)c1cc(C(=N)N)cs1", "note": "[Compound 374, (S)-7-((9H-carbazole-2-carbonyl)glycyl)-N—((R)-1-(4-carbamimidoylthiophen-2-yl)ethyl)-1,4-dioxa-7-azaspiro[4.4]nonane-8-carboxamide]", "IC50": "< 100"}
{"smiles": "Cc1ccc(-c2ccc(C(=O)NCC(=O)N3CC4(C[C@H]3C(=O)NCc3cc(C(=N)N)cs3)OCCO4)cc2)c(C)c1", "note": "[Compound 257, (S)—N-((4-carbamimidoylthiophen-2-yl)methyl)-7-((2′,4′-dimethyl-[1,1′-biphenyl]-4-carbonyl)glycyl)-1,4-dioxa-7-azaspiro[4.4]nonane-8-carboxamide]", "IC50": "< 100"}
{"smiles": "COC[C@@]1(F)C[C@@H](C(=O)N[C@H](C)c2cc(C(=N)N)cs2)N(C(=O)CNC(=O)c2ccc3cc4ccccc4cc3c2)C1", "note": "[Compound 224, (2S,4R)-1-[2-(anthracen-2-ylformamido)acetyl]-N-[(1R)-1-(4-carbamimidoylthiophen-2-yl)ethyl]-4-fluoro-4-(methoxymethyl)pyrrolidine-2-carboxamide]", "IC50": "< 100"}
{"smiles": "N=C(N)c1csc(CNC(=O)[C@@H]2CC3(CN2C(=O)CNC(=O)c2ccc(-c4ccc(C(=O)O)c(F)c4)cc2)OCCO3)c1", "note": "[Compound 213, (S)-4′-((2-(8-(((4-carbamimidoylthiophen-2-yl)methyl)carbamoyl)-1,4-dioxa-7-azaspiro[4.4]nonan-7-yl)-2-oxoethyl)carbamoyl)-3-fluoro-[1,1′-biphenyl]-4-carboxylic acid]", "IC50": "> 1000"}
{"smiles": "C[C@@]12C[C@@H]1N(C(=O)CNC(=O)c1ccc3c(c1)-c1ccccc1C3(F)F)[C@H](C(=O)Nc1cc(C(=N)N)cs1)C2", "note": "[Compound 259, (1S,3S,5S)—N-(4-carbamimidoylthiophen-2-yl)-2-((9,9-difluoro-9H-fluorene-3-carbonyl)glycyl)-5-methyl-2-azabicyclo[3.1.0]hexane-3-carboxamide]", "IC50": "> 1000"}
{"molecular_target": "Human complement C1s enzyme (Homo sapiens (Human), UniProt P09871)", "experiment": "Human C1s enzyme assay", "assay_type": "biochemical", "settings": "Human complement C1s enzyme 1.16 nM, substrate Z-L-Lys-SBzl; assay of Example 3; read-out: IC50 (Stars)", "in_short": "as §1", "units": {"IC50": "nM"}}
{"smiles": "CC1(C)c2ccccc2-c2cc(C(=O)NCC(=O)N3C[C@@](F)(CF)C[C@H]3C(=O)N[C@H](CO)c3cc(C(=N)N)cs3)ccc21", "note": "[Compound 401, (2S,4R)—N—((R)-1-(4-carbamimidoylthiophen-2-yl)-2-hydroxyethyl)-1-((9,9-dimethyl-9H-fluorene-3-carbonyl)glycyl)-4-fluoro-4-(fluoromethyl)pyrrolidine-2-carboxamide]", "IC50": "< 100"}
{"smiles": "N=C(N)c1c[nH]c(CNC(=O)[C@@H]2CC3(CN2C(=O)CNC(=O)c2ccc4c(c2)-c2ccccc2C4(F)F)OCCO3)c1", "note": "[Compound 423, (S)-N-((4-carbamimidoyl-1H-pyrrol-2-yl)methyl)-7-((9,9-difluoro-9H-fluorene-3-carbonyl)glycyl)-1,4-dioxa-7-azaspiro[4.4]nonane-8-carboxamide]", "IC50": "< 100"}
